ChEMBL document CHEMBL3763135, “Synthesis and evaluation of thiophene-based guanylhydrazones (iminoguanidines) efficient against panel of voriconazole-resistant fungal isolates” (Bioorg Med Chem, 2016)
In brackets after ≈: the same amount, converted by molar mass. Activity calls are given as the source filed them. The calls are words filed in the database; no cut-off is given here.

Key:
Candida parapsilosis [1] = test: Antifungal activity against Candida parapsilosis C27 by broth dilution method; format: functional; conditions: Lodderomyces parapsilosis
Candida albicans [2] = test: Antibiofilm activity against Candida albicans ATCC 10231 assessed as disruption of preformed biofilm after 24 hrs by concanavalin A-FITC-staining based fluorescence microscopic analysis; format: functional
Microsporum canis = test: Antifungal activity against Microsporum canis DMT2 by broth dilution method; format: functional
Pichia kudriavzevii [3] = test: Antibiofilm activity against Pichia kudriavzevii ATCC 34135 assessed as disruption of preformed biofilm after 24 hrs by concanavalin A-FITC-staining based fluorescence microscopic analysis; format: functional
[4] = Hemolytic effect in sheep RBC assessed as release of hemoglobin at cytotoxic IC50 after 1 hr; format: cell-based, Ovis aries, Erythrocyte; conditions: sheep red blood cells, read-out: Activity
[5] = Hemolytic effect in sheep RBC assessed as release of hemoglobin at MIC after 1 hr; format: ADME, cell-based, Ovis aries, Erythrocyte; conditions: sheep red blood cells, read-out: Activity
Aspergillus fumigatus = test: Antifungal activity against Aspergillus fumigatus ATCC 13073 by broth dilution method; format: functional
Candida albicans [6] = test: Antifungal activity against Candida albicans CA5 by broth dilution method; format: functional
MRC5 = test: Cytotoxicity against human MRC5 cells after 48 hrs by MTT assay; format: cell-based; conditions: MRC5, 48 h
Candida albicans [7] = test: Induction of DNA intercalation with Candida albicans genomic DNA at 25 ug/ml after 12 hrs by ethidium bromide staining based gel electrophoresis method
[8] = test system: Trichophyton mentagrophytes; test: Antifungal activity against Trichophyton mentagrophytes DMT4 by broth dilution method; format: functional
Candida albicans [9] = test: Antibiofilm activity against Candida albicans assessed as inhibition of Spider medium-induced hyphae formation at sub-MIC after 24 hrs by propidium iodide and FITC-conjugated concanavaline A staining based fluorescence microscopy; format: functional, organism-based
Candida parapsilosis [10] = test: Antibiofilm activity against Candida parapsilosis C27 assessed as disruption of preformed biofilm after 24 hrs by concanavalin A-FITC-staining based fluorescence microscopic analysis; format: functional
Fusarium oxysporum = test: Antifungal activity against Fusarium oxysporum AB18 by broth dilution method; format: functional
Candida albicans [11] = test: Antifungal activity against Candida albicans ATCC 10231 by broth dilution method; format: functional
Pichia kudriavzevii [12] = test: Antifungal activity against Candida krusei ATCC 34135 by broth dilution method; format: functional
[13] = Induction of membrane damage in PC/PS liposome assessed as calcein release at MIC after 30 mins by fluorescence-based liposome leakage assay; format: functional

For COc1ccc(-c2ccc(/C=N/NC(=N)N)s2)cc1.Cl, which MIC (Candida parapsilosis [1]) is on record?
Its MIC is 6.25 µg/mL.

What about the MBEC (Candida albicans [2]) of the same molecule?
Its MBEC is 500 µg/mL.

And the MIC (Microsporum canis)?
Its MIC is 0.97 µg/mL.

And the MBEC (Pichia kudriavzevii [3])?
The MBEC was 1000 µg/mL.

And the hemolysis at 1 h [4]?
The hemolysis at 1 h was ≤ 10%.

What about the hemolysis at 1 h [5] of the same molecule?
The hemolysis at 1 h was ≤ 10%.

What about the MIC (Aspergillus fumigatus) of the same molecule?
Its MIC is 25 µg/mL.

And the MIC (Candida albicans [6])?
Its MIC is 3.9 µg/mL.

And the IC50 (MRC5)?
The IC50 was 5 µg/mL.

And the Activity (Candida albicans [7])?
The Activity was “Active”.

And the MIC [8]?
Its MIC is 3.12 µg/mL.

And the Activity (Candida albicans [9])?
The Activity was “Active”.

What about the MBEC (Candida parapsilosis [10]) of the same molecule?
Its MBEC is 1000 µg/mL.

What about the MIC (Fusarium oxysporum) of the same molecule?
The MIC was > 250 µg/mL.

And the MIC (Candida albicans [11])?
Its MIC is 7.8 µg/mL.

And the MIC (Pichia kudriavzevii [12])?
The MIC was 6.25 µg/mL.

What does the source list for O=Cc1ccc(-c2ccccc2)s1?
MIC (Candida parapsilosis [1]): > 250 µg/mL; MBEC (Candida albicans [2]): >1000 µg/mL; MIC (Microsporum canis): 250 µg/mL (≈ 1330 µM); MBEC (Pichia kudriavzevii [3]): >1000 µg/mL; hemolysis at 1 h [4]: ≤ 10%; hemolysis at 1 h [5]: ≤ 10%; MIC (Aspergillus fumigatus): 125 µg/mL (≈ 664 µM); MIC (Candida albicans [6]): 250 µg/mL (≈ 1330 µM); IC50 (MRC5): 50 µg/mL (≈ 266 µM); Activity (Candida albicans [7]): inactive; MIC [8]: 250 µg/mL (≈ 1330 µM); Activity (Candida albicans [9]): Active; MBEC (Candida parapsilosis [10]): >1000 µg/mL; MIC (Fusarium oxysporum): 250 µg/mL (≈ 1330 µM); MIC (Candida albicans [11]): 250 µg/mL (≈ 1330 µM); MIC (Pichia kudriavzevii [12]): > 250 µg/mL

For Cl.N=C(N)N/N=C/c1ccc(-c2ccccc2)s1, which MIC (Candida parapsilosis [1]) is on record?
The MIC was 6.25 µg/mL.

What about the MBEC (Candida albicans [2]) of the same molecule?
The MBEC was 1000 µg/mL.

What about the MIC (Microsporum canis) of the same molecule?
The MIC was 1.56 µg/mL.

What about the MBEC (Pichia kudriavzevii [3]) of the same molecule?
Its MBEC is >1000 µg/mL.

And the hemolysis at 1 h [4]?
Its hemolysis at 1 h is ≤ 10%.

What about the hemolysis at 1 h [5] of the same molecule?
The hemolysis at 1 h was ≤ 10%.

And the MIC (Aspergillus fumigatus)?
Its MIC is 25 µg/mL.

What about the MIC (Candida albicans [6]) of the same molecule?
Its MIC is 1.95 µg/mL.

What about the IC50 (MRC5) of the same molecule?
Its IC50 is 5 µg/mL.

What about the Activity (Candida albicans [7]) of the same molecule?
The Activity was “Active”.

What about the MIC [8] of the same molecule?
The MIC was 3.12 µg/mL.

And the Activity (Candida albicans [9])?
The Activity was “Active”.

What about the MBEC (Candida parapsilosis [10]) of the same molecule?
The MBEC was >1000 µg/mL.

And the MIC (Fusarium oxysporum)?
Its MIC is 62.5 µg/mL.

What about the MIC (Candida albicans [11]) of the same molecule?
The MIC was 1.95 µg/mL.

And the MIC (Pichia kudriavzevii [12])?
The MIC was 6.25 µg/mL.

With Cl.N=C(N)N/N=C/c1ccc(-c2ccccc2)o1 as the molecule, how does the MIC (Candida parapsilosis [1]) read?
The MIC was 50 µg/mL.

And the MBEC (Candida albicans [2])?
Its MBEC is 500 µg/mL.

And the MIC (Microsporum canis)?
Its MIC is 1.56 µg/mL.

What about the MBEC (Pichia kudriavzevii [3]) of the same molecule?
Its MBEC is 500 µg/mL.

And the hemolysis at 1 h [4]?
The hemolysis at 1 h was ≤ 10%.

What about the hemolysis at 1 h [5] of the same molecule?
Its hemolysis at 1 h is ≤ 10%.

And the MIC (Aspergillus fumigatus)?
Its MIC is 125 µg/mL.

What about the MIC (Candida albicans [6]) of the same molecule?
Its MIC is 15.6 µg/mL.

What about the IC50 (MRC5) of the same molecule?
Its IC50 is 20 µg/mL.

And the Activity (Candida albicans [7])?
Its Activity is “Active”.

What about the MIC [8] of the same molecule?
Its MIC is 6.25 µg/mL.

And the Activity (Candida albicans [9])?
Its Activity is “Active”.

And the MBEC (Candida parapsilosis [10])?
The MBEC was 1000 µg/mL.

What about the MIC (Fusarium oxysporum) of the same molecule?
The MIC was 125 µg/mL.

What about the MIC (Candida albicans [11]) of the same molecule?
Its MIC is 7.8 µg/mL.

And the MIC (Pichia kudriavzevii [12])?
Its MIC is 50 µg/mL.

With Cl.N#Cc1ccc(-c2ccc(/C=N/NC(=N)N)s2)cc1 as the molecule, how does the MIC (Candida parapsilosis [1]) read?
The MIC was 12.5 µg/mL.

What about the MBEC (Candida albicans [2]) of the same molecule?
Its MBEC is 250 µg/mL.

And the MIC (Microsporum canis)?
Its MIC is 0.97 µg/mL.

And the MBEC (Pichia kudriavzevii [3])?
The MBEC was >1000 µg/mL.

What about the hemolysis at 1 h [4] of the same molecule?
The hemolysis at 1 h was ≤ 10%.

What about the hemolysis at 1 h [5] of the same molecule?
Its hemolysis at 1 h is ≤ 10%.

And the MIC (Aspergillus fumigatus)?
Its MIC is 25 µg/mL.

What about the MIC (Candida albicans [6]) of the same molecule?
Its MIC is 7.8 µg/mL.

What about the IC50 (MRC5) of the same molecule?
Its IC50 is 5 µg/mL.

What about the Activity (Candida albicans [7]) of the same molecule?
The Activity was “Active”.

What about the MIC [8] of the same molecule?
The MIC was 6.25 µg/mL.

What about the Activity (Candida albicans [9]) of the same molecule?
The Activity was “Active”.

And the MBEC (Candida parapsilosis [10])?
Its MBEC is 1000 µg/mL.

And the MIC (Fusarium oxysporum)?
Its MIC is > 250 µg/mL.

What about the MIC (Candida albicans [11]) of the same molecule?
The MIC was 3.9 µg/mL.

And the MIC (Pichia kudriavzevii [12])?
Its MIC is 25 µg/mL.

Which MIC (Candida parapsilosis [1]) does the source give for Cl.N=C(N)N/N=C/c1ccc(-c2ccc(F)cc2)s1 here?
The MIC was 6.25 µg/mL.

And the MBEC (Candida albicans [2])?
The MBEC was >1000 µg/mL.

And the MIC (Microsporum canis)?
Its MIC is 0.97 µg/mL.

What about the MBEC (Pichia kudriavzevii [3]) of the same molecule?
The MBEC was >1000 µg/mL.

What about the hemolysis at 1 h [4] of the same molecule?
Its hemolysis at 1 h is ≤ 10%.

And the hemolysis at 1 h [5]?
The hemolysis at 1 h was ≤ 10%.

What about the MIC (Aspergillus fumigatus) of the same molecule?
Its MIC is 25 µg/mL.

What about the MIC (Candida albicans [6]) of the same molecule?
Its MIC is 1.95 µg/mL.

And the IC50 (MRC5)?
Its IC50 is 4 µg/mL.

And the Activity (Candida albicans [7])?
Its Activity is “Active”.

What about the MIC [8] of the same molecule?
The MIC was 1.56 µg/mL.

And the Activity (Candida albicans [9])?
Its Activity is “Active”.

What about the MBEC (Candida parapsilosis [10]) of the same molecule?
Its MBEC is >1000 µg/mL.

What about the MIC (Fusarium oxysporum) of the same molecule?
The MIC was > 250 µg/mL.

What about the MIC (Candida albicans [11]) of the same molecule?
The MIC was 3.9 µg/mL.

What about the MIC (Pichia kudriavzevii [12]) of the same molecule?
The MIC was 6.25 µg/mL.

Which Activity [13] does the source give for NYSTATIN here?
Its Activity is 21%.
